Measurements as given in the supplement of paper PMC4862054.

Columns and labels:
CAL-148 [1] = test: drug sensitivity score (DSS), CellTiter-Blue viability (DSS (AUC-based score)); higher = stronger viability inhibition; extreme values may be limits of the assay; conditions: incubation time: 72 h
Protocol: (§1)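 DSRT with the CellTiter-Blue (resazurin reduction) viability readout, fluorescence 560/590 nm, 72 h incubation. Plates were normalised to DMSO and benzethonium chloride controls. DSS is computed from the area under the fitted dose-response curve (5 or 9 concentrations).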

MDA-MB-231 [2] = test: as above; conditions: incubation time: 72 h
Protocol: as §1

MDA-MB-468 = test: as above; conditions: incubation time: 72 h
Protocol: as §1

HCC1937 [3] = test: as above; conditions: incubation time: 72 h
Protocol: as §1

Hs578T = test: as above; conditions: incubation time: 72 h
Protocol: as §1

MFM-223 = test: as above; conditions: incubation time: 72 h
Protocol: as §1

MDA-MB-453 [4] = test: as above; conditions: incubation time: 72 h
Protocol: as §1

CAL-85-1 [5] = test: as above; conditions: incubation time: 72 h
Protocol: as §1

HCC1599 [6] = test: as above; conditions: incubation time: 72 h
Protocol: as §1

DU-4475 [7] = test: as above; conditions: incubation time: 72 h
Protocol: as §1

MDA-MB-436 = test: as above; conditions: incubation time: 72 h
Protocol: as §1

HDQ-P1 [8] = test: as above; conditions: incubation time: 72 h
Protocol: as §1

CAL-120 = test: as above; conditions: incubation time: 72 h
Protocol: as §1

BT-549 = test: as above; conditions: incubation time: 72 h
Protocol: as §1

SK-BR-3 = test: as above; conditions: incubation time: 72 h
Protocol: as §1

BT-474 = test: as above; conditions: incubation time: 72 h
Protocol: as §1

HCC1143 [9] = test: as above; conditions: incubation time: 72 h
Protocol: as §1

CAL-51 [10] = test: as above; conditions: incubation time: 72 h
Protocol: as §1

MDA-MB-231 [11] = conditions: 72 h
How it was run: (§2)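 Plates of 384 wells holding compound in 5 µl medium received breast cancer cell lines in 20 µl suspension and were incubated 72 h. CellTiter-Blue (2.5 µl, 2 h, 37 °C) was used for viability, read at 560/590 nm, and every plate was normalised to vehicle and a positive kill control and assessed by Z'-factor. The EC50 derives from a percent-inhibition dose-response curve fit censored at the highest concentration, leaving out rows whose drug sensitivity score was zero.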

HCC1937 [12] = conditions: 72 h
How it was run: as §2

HCC1599 [13] = conditions: 72 h
How it was run: as §2

HCC1143 [14] = conditions: 72 h
How it was run: as §2

CAL-148 [15] = test: normalised viability (% of control), CellTiter-Blue; higher = more viable cells (about 100 = DMSO control); conditions: incubation time: 72 h
Protocol: (§3)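 DSRT, CellTiter-Blue viability, 72 h incubation. Signal is normalised to DMSO and benzethonium chloride controls. Value is the normalised response at dose 6.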

MDA-MB-453 [16] = test: as above; conditions: incubation time: 72 h
Protocol: as §3

CAL-85-1 [17] = test: as above; conditions: incubation time: 72 h
Protocol: as §3

DU-4475 [18] = test: as above; conditions: incubation time: 72 h
Protocol: as §3

HDQ-P1 [19] = test: as above; conditions: incubation time: 72 h
Protocol: as §3

CAL-51 [20] = test: as above; conditions: incubation time: 72 h
Protocol: as §3

Row | SMILES | drug sensitivity score (CAL-148 [1]) | drug sensitivity score (MDA-MB-231 [2]) | drug sensitivity score (MDA-MB-468) | drug sensitivity score (HCC1937 [3]) | drug sensitivity score (Hs578T) | drug sensitivity score (MFM-223) | drug sensitivity score (MDA-MB-453 [4]) | drug sensitivity score (CAL-85-1 [5]) | drug sensitivity score (HCC1599 [6]) | drug sensitivity score (DU-4475 [7]) | drug sensitivity score (MDA-MB-436) | drug sensitivity score (HDQ-P1 [8]) | drug sensitivity score (CAL-120) | drug sensitivity score (BT-549) | drug sensitivity score (SK-BR-3) | drug sensitivity score (BT-474) | drug sensitivity score (HCC1143 [9]) | drug sensitivity score (CAL-51 [10]) | EC50, CellTiter-Blue viability (MDA-MB-231 [11]) | EC50, CellTiter-Blue viability (HCC1937 [12]) | EC50, CellTiter-Blue viability (HCC1599 [13]) | EC50, CellTiter-Blue viability (HCC1143 [14]) | normalised viability (CAL-148 [15]; 300 nM) | normalised viability (MDA-MB-453 [16]; 300 nM) | normalised viability (CAL-85-1 [17]; 300 nM) | normalised viability (DU-4475 [18]; 300 nM) | normalised viability (HDQ-P1 [19]; 300 nM) | normalised viability (CAL-51 [20]; 300 nM) | normalised viability (CAL-148 [15]; 30 nM) | normalised viability (MDA-MB-453 [16]; 30 nM) | normalised viability (CAL-85-1 [17]; 30 nM) | normalised viability (DU-4475 [18]; 30 nM) | normalised viability (HDQ-P1 [19]; 30 nM) | normalised viability (CAL-51 [20]; 30 nM)
1 | Nc1ccccc1NC(=O)c1ccc(CNC(=O)OCc2cccnc2)cc1 [Entinostat] | 5.16 | 4.99 | 7.4 | 4.61 | 2.77 | 5.32 | 5.77 | 5.41 | 4.98 | 2.81 | 0 | 0 | 8.06 | 0 | 12.4 | 3.64 | 2.98 | 1.7 | 2880 nM | 1170 nM | 3680 nM | 5100 nM | 86.9% | 103% | 109% | 97.9% | 72% | 114% | – | – | – | – | – | –
2 | O=C(/C=C/c1cccnc1)NCCCCC1CCN(C(=O)c2ccccc2)CC1 [FK-866] | 9.58 | 15.6 | 30.1 | 7.6 | 25.5 | 23.9 | 27.2 | 9.18 | 18.7 | 19.8 | 22.3 | 9.7 | 19.4 | 23.9 | 0 | 9.11 | 22.2 | 14.5 | 20.1 nM | 80.3 nM | 13.9 nM | 4.08 nM | – | – | – | – | – | – | 73.7% | 23.8% | 72.4% | 31.4% | 64.3% | 48.8%
3 | O=C(Cc1ccc(-c2ccc(OCCN3CCOCC3)cc2)cn1)NCc1ccccc1 [KX2-391] | 22.6 | 24.2 | 16.6 | 24.2 | 25.9 | 17.9 | 21.5 | 19.6 | 7.95 | 25.9 | 14.6 | 16 | 23.4 | 24.1 | 25 | 11.2 | 23.1 | 24.2 | 43.1 nM | 47.2 nM | 212 nM | 13.6 nM | 20.4% | 28.3% | 36.3% | 9.43% | 46.6% | 13.9% | – | – | – | – | – | –
4 | COc1cc([C@@H]2c3cc4c(cc3[C@@H](O[C@@H]3O[C@@H]5CO[C@@H](c6cccs6)O[C@H]5[C@H](O)[C@H]3O)[C@H]3COC(=O)[C@H]23)OCO4)cc(OC)c1O [Teniposide] | 18.5 | 7.47 | 10.9 | 19.7 | 4.64 | 7.43 | 6.23 | 8.14 | 8.13 | 28 | 10.3 | 4.07 | 11.2 | 9.11 | 21.4 | 1.44 | 11.7 | 22.2 | 2180 nM | 103 nM | 1740 nM | 829 nM | 49.2% | 87.9% | 82.6% | 10.4% | 86.3% | 28.1% | – | – | – | – | – | –
5 | CCCCC(=O)OCC(=O)[C@]1(O)Cc2c(O)c3c(c(O)c2[C@@H](O[C@H]2C[C@H](NC(=O)C(F)(F)F)[C@H](O)[C@H](C)O2)C1)C(=O)c1c(OC)cccc1C3=O [Valrubicin] | 21.1 | 10.8 | 11.7 | 16 | 10.3 | 6.7 | 11 | 7.92 | 6.82 | 25 | 5.44 | 9.44 | 15.3 | 7.75 | 18.6 | 5.42 | 11.4 | 20.6 | 721 nM | 211 nM | 2320 nM | 525 nM | 35.5% | 73.9% | 75.1% | 23.4% | 72% | 34.5% | – | – | – | – | – | –
